Common to all, as to assay type: in vivo
What all share (details): active ingredient amount 31 g/ha, 14th day after application

The test system of experiment [1] is italian ryegrass (Lolium multiflorum Lam.). As to the kind of experiment: Test Example 1: foliar treatment, growth inhibition rate on 14th day. In a few lines:
(§1)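 Visual 0–100% inhibition scoring (100 = complete kill) at 14 days after foliar treatment of soil-grown seedlings at species-specific leaf stages, with the compound sprayed as a wettable powder or emulsifiable concentrate dilution.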

Experiment [2] has as its system wheat (Triticum aestivum L.). The experiment is described as above. In a few lines:
as §1

Experiment [3] relates to corn (Zea mays L.). The description is as above. In a few lines:
as §1

The test system of experiment [4] is soybean (Glycine max Merr.). The description is as above. A digest of the protocol:
as §1

For experiment [5], the system named is rice (Oryza sativa L.). The description is as above. A digest of the protocol:
as §1

Experiment [6] has as its system wild oat (Avena fatua L.). The experiment is described as above. A digest of the protocol:
as §1

For experiment [7], the system named is barnyardgrass (Echinochloa crus-qalli L.). The experiment is described as above. In a few lines: as §1
In experiment [8] the test system is redroot pigweed (Amaranthus retroflexus L.). The description is as above. In a few lines: as §1
In experiment [9] the test system is green foxtail (Setaria viridis L.). The description is as above. A digest of the protocol: as §1
The subject of experiment [10] is crabgrass (Digitaria sanquinalis L.). The experiment is described as above. A digest of the protocol:
as §1

Experiment [11] concerns wheat (Triticum aestivum L.). Nature of the experiment: Test Example 2: soil application on the day after sowing, growth inhibition rate on 14th day. In a few lines:
(§2)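 Upland soil pots; sowing, then next-day soil spraying of compound formulations (1,000 L/ha water) at defined a.i. doses. Day-14 visual rating of inhibition on a 0–100 scale, where 100 means complete kill.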

Experiment [12] relates to corn (Zea mays L.). The description is as above. A digest of the protocol:
as §2

Experiment [13] relates to soybean (Glycine max Merr.). The experiment is described as above. A digest of the protocol: as §2
Experiment [14] concerns rice (Oryza sativa L.). The description is as above. In a few lines: as §2
Experiment [15] concerns prickly sida (Sida spinosa L.). Described as above. A digest of the protocol:
as §2

Experiment [16] concerns barnyardgrass (Echinochloa crus-qalli L.). The description is as above. A digest of the protocol:
as §2

Experiment [17] has as its system redroot pigweed (Amaranthus retroflexus L.). Described as above. A digest of the protocol: as §2
Experiment [18] has as its system green foxtail (Setaria viridis L.). Described as above. A digest of the protocol:
as §2

Experiment [19] has as its system crabgrass (Digitaris sanquinalis L.). The description is as above. A digest of the protocol:
as §2

Experiment [20] deals with velvetleaf (Abutilon theophrasti MEDIC.). Described as above. A digest of the protocol:
as §2

For the compound `CCc1ccc(Oc2ncc(C(F)(F)F)cc2Cl)cc1-c1c(OC(C)=O)cnn(CC)c1=O` [1-174], the “Growth inhibition rate (%) Italian ryegrass” value in experiment [1] was determined as 93%. Further, the “Growth inhibition rate (%) Wheat” value in experiment [2] came out at 75%; in experiment [11], 0%. In addition, the “Growth inhibition rate (%) Corn” value in the experiment on corn (Zea mays L.) [3] came out at 100%; in the experiment on corn (Zea mays L.) [12], 0%. The “Growth inhibition rate (%) Soybean” value in experiment [4] and in [13] was 0% in each case. Further, the “Growth inhibition rate (%) Rice” value in the experiment on rice (Oryza sativa L.) [5] was found to be 20%; with rice (Oryza sativa L.) [14] it was 0%. Besides, in experiment [6], the “Growth inhibition rate (%) Wild oat” value was 100%. For the same compound, the “Growth inhibition rate (%) Barnyardgrass” value in experiment [7] and in experiment [16] was 100% throughout. Besides, the “Growth inhibition rate (%) Redroot pigweed” value in experiment [8] and in experiment [17] was 0% throughout. In addition, the “Growth inhibition rate (%) Green foxtail” value in experiment [9] and in experiment [18] was 100% each time. In addition, the “Growth inhibition rate (%) Crabgrass” value in experiment [10] and in [19] was 100% throughout. Moreover, the “Growth inhibition rate (%) Prickly sida” value in experiment [15] amounted to 0%. Besides, in experiment [20], the “Growth inhibition rate (%) Velvetleaf” value stood at 0%.
In the case of `Cc1ccc(Oc2ccc(C(F)(F)F)cn2)cc1-c1c(O)c(C)nn(C)c1=O` [Compound 2-3], the “Growth inhibition rate (%) Italian ryegrass” value in experiment [1] worked out at 20%. Moreover, the “Growth inhibition rate (%) Wheat” value in experiment [2] is given as 30%; in [11], 0%. Further, the “Growth inhibition rate (%) Corn” value is reported as 10% with corn (Zea mays L.) [3] and 0% in the experiment on corn (Zea mays L.) [12]. Further, the “Growth inhibition rate (%) Soybean” value in experiment [4] was 10%; in experiment [13] it was 0%. For the same compound, the figures for the “Growth inhibition rate (%) Rice” value in the experiment on rice (Oryza sativa L.) [5] and in the experiment on rice (Oryza sativa L.) [14] were 10% and 20%, respectively. Also, the “Growth inhibition rate (%) Wild oat” value in experiment [6] is given as 35%. The “Growth inhibition rate (%) Barnyardgrass” value in experiment [7] turned out to be 85%; in experiment [16], 50%. Also, the “Growth inhibition rate (%) Redroot pigweed” value in [8] and in [17] was 0% in each case. For the same compound, the “Growth inhibition rate (%) Green foxtail” value in [9] turned out to be 85%; in experiment [18], 98%. Further, the “Growth inhibition rate (%) Crabgrass” value in experiment [10] is recorded as 15%; in experiment [19], 80%. For the same compound, the “Growth inhibition rate (%) Prickly sida” value in experiment [15] was 0%. Besides, the “Growth inhibition rate (%) Velvetleaf” value in experiment [20] is recorded as 0%.
In the case of `Cc1ccc(Oc2ncc(C(F)(F)F)cc2F)cc1-c1c(O)c(C)nn(C)c1=O` [Compound 2-5], the “Growth inhibition rate (%) Italian ryegrass” value in [1] was determined as 95%. In addition, the “Growth inhibition rate (%) Wheat” value stood at 40% in experiment [2] and 30% in experiment [11]. In addition, the entries for the “Growth inhibition rate (%) Corn” value in the experiment on corn (Zea mays L.) [3] and in the experiment with corn (Zea mays L.) [12] were 75% and 65%, respectively. The “Growth inhibition rate (%) Soybean” value in experiment [4] and in experiment [13] was 0% each time. Besides, the “Growth inhibition rate (%) Rice” value in the experiment with rice (Oryza sativa L.) [5] turned out to be 85%; in the experiment with rice (Oryza sativa L.) [14], 80%. The “Growth inhibition rate (%) Wild oat” value in [6] is 95%. The “Growth inhibition rate (%) Barnyardgrass” value in experiment [7] and in experiment [16] was 100% throughout. Besides, the results for the “Growth inhibition rate (%) Redroot pigweed” value in experiment [8] and in experiment [17] were 20% and 0%, respectively. The “Growth inhibition rate (%) Green foxtail” value in [9] and in experiment [18] was 100% throughout. Moreover, the “Growth inhibition rate (%) Crabgrass” value in [10] is on record as 99%; in experiment [19] it was 100%. Moreover, the “Growth inhibition rate (%) Prickly sida” value in experiment [15] turned out to be 0%. Also, the “Growth inhibition rate (%) Velvetleaf” value in [20] turned out to be 0%.
For the compound `Cc1ccc(Oc2nc3ccc(Cl)cc3o2)cc1-c1c(O)c(C)nn(C)c1=O` [Compound 2-8], the “Growth inhibition rate (%) Italian ryegrass” value in experiment [1] was found to be 83%. Also, the results for the “Growth inhibition rate (%) Wheat” value in experiment [2] and in experiment [11] were 25% and 0%, respectively. For the same compound, the “Growth inhibition rate (%) Corn” value in the experiment with corn (Zea mays L.) [3] amounted to 10%; with corn (Zea mays L.) [12] it was 0%. The “Growth inhibition rate (%) Soybean” value in experiment [4] and in [13] was 0% throughout. The entries for the “Growth inhibition rate (%) Rice” value in the experiment with rice (Oryza sativa L.) [5] and with rice (Oryza sativa L.) [14] were 15% and 20%, respectively. The “Growth inhibition rate (%) Wild oat” value in experiment [6] stood at 65%. Moreover, the “Growth inhibition rate (%) Barnyardgrass” value in experiment [7] and in [16] was 100% each time. The “Growth inhibition rate (%) Redroot pigweed” value in [8] and in [17] was 0% each time. Besides, the figures for the “Growth inhibition rate (%) Green foxtail” value in experiment [9] and in experiment [18] were 99% and 100%, respectively. Also, the “Growth inhibition rate (%) Crabgrass” value in [10] turned out to be 100%; in experiment [19] it was 95%. Moreover, the “Growth inhibition rate (%) Prickly sida” value in experiment [15] was 0%. The “Growth inhibition rate (%) Velvetleaf” value in [20] was determined as 0%.
In the case of `Cc1ccc(Oc2nc3ccc(Cl)cc3s2)cc1-c1c(O)c(C)nn(C)c1=O` [Compound 2-10], in experiment [1], the “Growth inhibition rate (%) Italian ryegrass” value turned out to be 10%. The “Growth inhibition rate (%) Wheat” value in experiment [2] turned out to be 10%; in [11] it was 0%. The “Growth inhibition rate (%) Corn” value worked out at 0% in the experiment on corn (Zea mays L.) [3] and 30% in the experiment with corn (Zea mays L.) [12]. For the same compound, the “Growth inhibition rate (%) Soybean” value in experiment [4] is on record as 30%; in experiment [13] it was 0%. Further, the “Growth inhibition rate (%) Rice” value with rice (Oryza sativa L.) [5] stood at 0%; in the experiment on rice (Oryza sativa L.) [14], 40%. In addition, the “Growth inhibition rate (%) Wild oat” value in experiment [6] was 10%. Besides, the entries for the “Growth inhibition rate (%) Barnyardgrass” value in experiment [7] and in [16] were 99% and 95%, respectively. Besides, the “Growth inhibition rate (%) Redroot pigweed” value in experiment [8] and in [17] was 0% in each case. In addition, the “Growth inhibition rate (%) Green foxtail” value in experiment [9] was 99%; in experiment [18] it was 85%. Besides, the “Growth inhibition rate (%) Crabgrass” value in experiment [10] is reported as 40%; in experiment [19], 50%. In experiment [15], the “Growth inhibition rate (%) Prickly sida” value stood at 0%. Also, the “Growth inhibition rate (%) Velvetleaf” value in [20] is reported as 0%.
Regarding `CC(=O)Oc1c(C)nn(C)c(=O)c1-c1cc(Oc2ncc(Cl)cc2F)ccc1C` [Compound 2-59], in experiment [1], the “Growth inhibition rate (%) Italian ryegrass” value is listed as 90%. Besides, the results for the “Growth inhibition rate (%) Wheat” value in [2] and in experiment [11] were 40% and 0%, respectively. Also, the results for the “Growth inhibition rate (%) Corn” value with corn (Zea mays L.) [3] and in the experiment on corn (Zea mays L.) [12] were 90% and 0%, respectively. For the same compound, the “Growth inhibition rate (%) Soybean” value in [4] and in [13] was 0% in each case. The results for the “Growth inhibition rate (%) Rice” value in the experiment on rice (Oryza sativa L.) [5] and in the experiment with rice (Oryza sativa L.) [14] were 90% and 0%, respectively. Besides, the “Growth inhibition rate (%) Wild oat” value in experiment [6] amounted to 95%. Moreover, the “Growth inhibition rate (%) Barnyardgrass” value turned out to be 99% in experiment [7] and 75% in experiment [16]. The “Growth inhibition rate (%) Redroot pigweed” value in experiment [8] and in [17] was 0% throughout. For the same compound, the “Growth inhibition rate (%) Green foxtail” value in experiment [9] amounted to 83%; in [18], 40%. Also, the “Growth inhibition rate (%) Crabgrass” value in [10] is 83%; in [19], 70%. The “Growth inhibition rate (%) Prickly sida” value in experiment [15] turned out to be 0%. In [20], the “Growth inhibition rate (%) Velvetleaf” value is on record as 0%.
With `CC(=O)Oc1c(C)nn(C)c(=O)c1-c1cc(Oc2ccc(C(F)(F)F)cn2)ccc1C` [Compound 2-61], the “Growth inhibition rate (%) Italian ryegrass” value in [1] was 93%. Further, the “Growth inhibition rate (%) Wheat” value in experiment [2] turned out to be 95%; in experiment [11] it was 0%. For the same compound, the figures for the “Growth inhibition rate (%) Corn” value in the experiment on corn (Zea mays L.) [3] and in the experiment on corn (Zea mays L.) [12] were 95% and 0%, respectively. The “Growth inhibition rate (%) Soybean” value in experiment [4] and in [13] was 0% in each case. Besides, the “Growth inhibition rate (%) Rice” value in the experiment on rice (Oryza sativa L.) [5] is 90%; in the experiment with rice (Oryza sativa L.) [14], 0%. The “Growth inhibition rate (%) Wild oat” value in [6] was 98%. For the same compound, the entries for the “Growth inhibition rate (%) Barnyardgrass” value in experiment [7] and in experiment [16] were 99% and 65%, respectively. Moreover, the “Growth inhibition rate (%) Redroot pigweed” value in [8] and in experiment [17] was 0% throughout. In addition, the “Growth inhibition rate (%) Green foxtail” value in experiment [9] was 95%; in experiment [18] it was 98%. Moreover, the “Growth inhibition rate (%) Crabgrass” value is 78% in experiment [10] and 50% in [19]. Further, the “Growth inhibition rate (%) Prickly sida” value in experiment [15] was determined as 0%. Moreover, the “Growth inhibition rate (%) Velvetleaf” value in experiment [20] worked out at 0%.
